This note sets out measurements from patent US20230089867A1, “CYCLIC PENTAMER COMPOUNDS AS PROPROTEIN CONVERTASE SUBTILISIN/KEXIN TYPE 9 (PCSK9) INHIBITORS FOR THE TREATMENT OF METABOLIC DISORDER” (Novartis AG, priority 2018, published 2023).

Molecules are shown by their SMILES.

This assay concerns the target human PCSK9 (Homo sapiens, UniProt Q8NBP7). In words: PCSK9 ligand binding TR-FRET assay (interference with binding of human PCSK9 to human LDLR). Conditions: for Max % inhibition: PCSK9 FRET assay, efficacy (Amax), 100% = 1 uM unlabeled human PCSK9, 0% = DMSO; for IC50: TR-FRET, human PCSK9 Alexa Fluor 647 / human LDLR extracellular domain-Europium Kryptate, read-out: PCSK9 FRET Assay IC50. The essentials:
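Threefold compound dilutions were pre-incubated 30 min with PCSK9, after which 4 nM Europium Kryptate-tagged human LDLR ectodomain was added for a further 2 h.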

human PCSK9, sequence (Q8NBP7 153-692): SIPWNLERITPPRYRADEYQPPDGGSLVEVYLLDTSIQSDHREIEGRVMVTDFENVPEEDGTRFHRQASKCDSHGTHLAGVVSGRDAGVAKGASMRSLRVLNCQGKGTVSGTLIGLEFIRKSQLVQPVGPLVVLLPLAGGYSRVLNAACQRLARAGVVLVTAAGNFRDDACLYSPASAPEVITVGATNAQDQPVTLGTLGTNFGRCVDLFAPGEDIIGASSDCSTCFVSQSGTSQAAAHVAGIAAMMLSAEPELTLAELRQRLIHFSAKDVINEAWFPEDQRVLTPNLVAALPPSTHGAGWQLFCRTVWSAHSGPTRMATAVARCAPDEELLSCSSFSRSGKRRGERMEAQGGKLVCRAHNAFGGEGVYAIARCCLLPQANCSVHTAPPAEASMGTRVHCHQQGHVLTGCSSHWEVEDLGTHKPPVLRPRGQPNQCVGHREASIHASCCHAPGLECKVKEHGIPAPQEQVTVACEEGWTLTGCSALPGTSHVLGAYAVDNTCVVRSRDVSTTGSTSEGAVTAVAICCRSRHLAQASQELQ
human PCSK9, sequence (Q8NBP7 31-152 partner limits assumed): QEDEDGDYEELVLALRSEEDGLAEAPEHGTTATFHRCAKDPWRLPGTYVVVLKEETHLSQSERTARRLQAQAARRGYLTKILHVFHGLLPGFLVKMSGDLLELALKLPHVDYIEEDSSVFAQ

As to `CC=CC[C@@H]1CC(=O)N(Cc2ccc(Cl)cc2Oc2ccc(-c3cnc(CN(C)C)n3C)cc2)[C@@H](C)C(=O)N[C@@H](COC)C(=O)N(C)[C@@H](Cc2ccc(Cl)cc2)CC(=O)N[C@H]2CCCC[C@@H]2N(C)C1=O` [Compound 286, (4S,7S,10S,14R,16aS,20aS)-14-(but-2-en-1-yl)-11-(4-chloro-2-(4-(2-((dimethylamino)methyl)-1-methyl-1H-imidazol-5-yl)phenoxy)benzyl)-4-(4-chlorobenzyl)-7-(methoxymethyl)-5,10,16-trimethylhexadecahydrobenzo[l][1,4,7,11,14]pentaazacyclooctadecine-2,6,9,12,15(3H)-pentaone], the Max % inhibition was determined as 59.34% and the IC50 was 0.7 nM.

Take `CN(C)Cc1ncc(-c2ccc(Oc3cc(Cl)ccc3CN3C(=O)C[C@@H](Cc4ccccc4)C(=O)N(C)[C@H]4CCCC[C@@H]4NC(=O)C[C@H](Cc4ccc(Cl)cc4)N(C)C(=O)[C@H](CO)NC(=O)[C@H]3CCC(=O)OC(C)(C)C)cc2)n1C` [Compound 287, tert-butyl 3-((4S,7S,10R,14R,16aS,20aS)-14-benzyl-11-(4-chloro-2-(4-(2-((dimethylamino)methyl)-1-methyl-1H-imidazol-5-yl)phenoxy)benzyl)-4-(4-chlorobenzyl)-7-(hydroxymethyl)-5,16-dimethyl-2,6,9,12,15-pentaoxodocosahydrobenzo[l][1,4,7,11,14]pentaazacyclooctadecin-10-yl)propanoate]: the Max % inhibition is on record as 89.28% and the IC50 is 2.6 nM.

Turning to `COC[C@@H]1NC(=O)[C@@H](CCN(C)C)N(Cc2ccc(Cl)cc2Oc2ccc(-c3cnc(CN(C)C)n3C)cc2)C(=O)C[C@@H](Cc2ccccc2)C(=O)N(C)[C@H]2CCCC[C@@H]2NC(=O)C[C@H](Cc2ccc(Cl)cc2)N(C)C1=O` [Compound 288, (4S,7S,10R,14R,16aS,20aS)-14-benzyl-11-(4-chloro-2-(4-(2-((dimethylamino)methyl)-1-methyl-1H-imidazol-5-yl)phenoxy)benzyl)-4-(4-chlorobenzyl)-10-(2-(dimethylamino)ethyl)-7-(methoxymethyl)-5,16-dimethylhexadecahydrobenzo[l][1,4,7,11,14]pentaazacyclooctadecine-2,6,9,12,15(3H)-pentaone], the Max % inhibition is 87.05% and the IC50 was 24.1 nM.

As for `C=CC[C@@H]1CC(=O)N(Cc2ccc(Cl)cc2Oc2ccc(-c3cnc(CN(C)C)n3C)cc2)[C@@H](C)C(=O)N[C@@H](COC)C(=O)N(C)[C@@H](Cc2ccc(Cl)cc2)CC(=O)N[C@@H](C)[C@H](C)N(C)C1=O` [Compound 289, (2S,5S,8S,12S,13S,16R)-16-allyl-1-(4-chloro-2-(4-(2-((dimethylamino)methyl)-1-methyl-1H-imidazol-5-yl)phenoxy)benzyl)-8-(4-chlorobenzyl)-5-(methoxymethyl)-2,7,12,13,14-pentamethyl-1,4,7,11,14-pentaazacyclooctadecane-3,6,10,15,18-pentaone], the Max % inhibition was 100.92% and the IC50 turned out to be 0.6 nM.

In the case of `COC[C@@H]1NC(=O)[C@H](C)N(Cc2ccc(Cl)cc2Oc2ccc(-c3cnc(CN(C)C)n3C)cc2)C(=O)C[C@@H](CC2CC2)C(=O)N(C)[C@H]2CCCC[C@@H]2NC(=O)C[C@H](Cc2ccc(Cl)cc2)N(C)C1=O` [Compound 290, (4S,7S,10S,14R,16aS,20aS)-11-(4-chloro-2-(4-(2-((dimethylamino)methyl)-1-methyl-1H-imidazol-5-yl)phenoxy)benzyl)-4-(4-chlorobenzyl)-14-(cyclopropylmethyl)-7-(methoxymethyl)-5,10,16-trimethylhexadecahydrobenzo[l][1,4,7,11,14]pentaazacyclooctadecine-2,6,9,12,15(3H)-pentaone], the Max % inhibition amounted to 79.21% and the IC50 worked out at 3.6 nM.

For the molecule `COC[C@@H]1NC(=O)[C@H](CCCN(C)C)N(Cc2ccc(Cl)cc2Oc2ccc(-c3cnc(CN(C)C)n3C)cc2)C(=O)C[C@@H](Cc2ccccc2)C(=O)N(C)[C@H]2CCCC[C@@H]2NC(=O)C[C@H](Cc2ccc(Cl)cc2)N(C)C1=O` [Compound 291, (4S,7S,10S,14R,16aS,20aS)-14-benzyl-11-(4-chloro-2-(4-(2-((dimethylamino)methyl)-1-methyl-1H-imidazol-5-yl)phenoxy)benzyl)-4-(4-chlorobenzyl)-10-(3-(dimethylamino)propyl)-7-(methoxymethyl)-5,16-dimethylhexadecahydrobenzo[l][1,4,7,11,14]pentaazacyclooctadecine-2,6,9,12,15(3H)-pentaone], the Max % inhibition is recorded as 102.86% and the IC50 was determined as 1.6 nM.

Consider `COC[C@@H]1NC(=O)[C@H](C)N(Cc2ccc(Cl)cc2Oc2ccc(-n3cnc(CN(C)C)c3C)cc2)C(=O)C[C@@H](Cc2ccccc2)C(=O)N(C)[C@H]2CCCC[C@@H]2NC(=O)C[C@H](Cc2ccc(Cl)cc2)N(C)C1=O` [Compound 292, (4S,7S,10S,14R,16aS,20aS)-14-benzyl-11-(4-chloro-2-(4-(4-((dimethylamino)methyl)-5-methyl-1H-imidazol-1-yl)phenoxy)benzyl)-4-(4-chlorobenzyl)-7-(methoxymethyl)-5,10,16-trimethylhexadecahydrobenzo[l][1,4,7,11,14]pentaazacyclooctadecine-2,6,9,12,15(3H)-pentaone], for which the Max % inhibition is listed as 113.30% and the IC50 was 3 nM.

For `COC[C@@H]1NC(=O)[C@H](C)N(Cc2ccc(Cl)cc2Oc2ccc(-c3cnc(CN(C)C)n3C)cc2)C(=O)C[C@@H](Cc2ccc(F)c(F)c2F)C(=O)N(C)[C@@H](C)[C@H](C)NC(=O)C[C@H](Cc2ccc(Cl)cc2)N(C)C1=O` [Compound 293, (2S,5S,8S,12S,13S,16R)-1-(4-chloro-2-(4-(2-((dimethylamino)methyl)-1-methyl-1H-imidazol-5-yl)phenoxy)benzyl)-8-(4-chlorobenzyl)-5-(methoxymethyl)-2,7,12,13,14-pentamethyl-16-(2,3,4-trifluorobenzyl)-1,4,7,11,14-pentaazacyclooctadecane-3,6,10,15,18-pentaone], the Max % inhibition came out at 103.68% and the IC50 was determined as 0.7 nM.

Regarding `COC[C@@H]1NC(=O)[C@@H](C)N(Cc2ccc(Cl)cc2Oc2ccc(-c3cnc(CN(C)C)n3C)cc2)C(=O)C[C@@H](Cc2ccccc2)C(=O)N(C)[C@H]2CCOC[C@@H]2NC(=O)C[C@H](Cc2ccc(Cl)cc2)N(C)C1=O` [Compound 294, (4S,7S,10R,14R,16aS,20aR)-14-benzyl-11-(4-chloro-2-(4-(2-((dimethylamino)methyl)-1-methyl-1H-imidazol-5-yl)phenoxy)benzyl)-4-(4-chlorobenzyl)-7-(methoxymethyl)-5,10,16-trimethyltetradecahydro-1H-pyrano[3,4-l][1,4,7,11,14]pentaazacyclooctadecine-2,6,9,12,15(3H)-pentaone], the Max % inhibition is reported as 55.44% and the IC50 is 105 nM.

For `COC[C@@H]1NC(=O)[C@H](C)N(Cc2ccc(Cl)cc2Oc2ccc(-c3cnc(CN(C)C)n3C)cc2)C(=O)C[C@@H](Cc2ccccn2)C(=O)N(C)[C@@H](C)[C@H](C)NC(=O)C[C@H](Cc2ccc(Cl)cc2)N(C)C1=O` [Compound 295, (2S,5S,8S,12S,13S,16R)-1-(4-chloro-2-(4-(2-((dimethylamino)methyl)-1-methyl-1H-imidazol-5-yl)phenoxy)benzyl)-8-(4-chlorobenzyl)-5-(methoxymethyl)-2,7,12,13,14-pentamethyl-16-(pyridin-2-ylmethyl)-1,4,7,11,14-pentaazacyclooctadecane-3,6,10,15,18-pentaone], the Max % inhibition is on record as 101.64% and the IC50 worked out at 1.8 nM.

Turning to `COC[C@@H]1NC(=O)[C@H](CCCN2CCCC2=O)N(Cc2ccc(Cl)cc2Oc2ccc(-c3cnc(CN(C)C)n3C)cc2)C(=O)C[C@@H](Cc2ccccc2)C(=O)N(C)[C@H]2CCCC[C@@H]2NC(=O)C[C@H](Cc2ccc(Cl)cc2)N(C)C1=O` [Compound 296, (4S,7S,10S,14R,16aS,20aS)-14-benzyl-11-(4-chloro-2-(4-(2-((dimethylamino)-methyl)-1-methyl-1H-imidazol-5-yl)phenoxy)benzyl)-4-(4-chlorobenzyl)-7-(methoxymethyl)-5,16-dimethyl-10-(3-(2-oxopyrrolidin-1-yl)propyl)hexadecahydrobenzo[l][1,4,7,11,14]penta-azacyclooctadecine-2,6,9,12,15(3H)-pentaone], the Max % inhibition came to 98.03% and the IC50 came out at 1.2 nM.

Turning to `COC[C@@H]1NC(=O)[C@H](C)N(Cc2ccc(Cl)cc2Oc2c(F)cc(-c3cnc(CN4CCCC4)n3C)cc2F)C(=O)C[C@@H](Cc2ccccc2)C(=O)N(C)[C@@H](C)CNC(=O)C[C@H](Cc2ccc(Cl)cc2)N(C)C1=O` [Compound 298, (2S,5S,8S,13S,16R)-16-benzyl-1-(4-chloro-2-(2,6-difluoro-4-(1-methyl-2-(pyrrolidin-1-ylmethyl)-1H-imidazol-5-yl)phenoxy)benzyl)-8-(4-chlorobenzyl)-5-(methoxymethyl)-2,7,13,14-tetramethyl-1,4,7,11,14-pentaazacyclooctadecane-3,6,10,15,18-pentaone], the Max % inhibition is recorded as 99.00% and the IC50 is 2.01 nM.

With `COC[C@@H]1NC(=O)[C@H](C)N(Cc2ccc(Cl)cc2Oc2ccc(-c3cnc(CN4CCCC4)n3C)c(F)c2F)C(=O)C[C@@H](Cc2ccccc2)C(=O)N(C)[C@@H](C)CNC(=O)C[C@H](Cc2ccc(Cl)cc2)N(C)C1=O` [Compound 299, (2S,5S,8S,13S,16R)-16-benzyl-1-(4-chloro-2-(2,3-difluoro-4-(1-methyl-2-(pyrrolidin-1-ylmethyl)-1H-imidazol-5-yl)phenoxy)benzyl)-8-(4-chlorobenzyl)-5-(methoxymethyl)-2,7,13,14-tetramethyl-1,4,7,11,14-pentaazacyclooctadecane-3,6,10,15,18-pentaone], the Max % inhibition came to 95.40% and the IC50 came to 3.3 nM.

As a reminder, the IC50 is the concentration needed to halve the response being measured.
